Test results: ChEMBL document CHEMBL5150004, “Targeting Rearranged during Transfection in Cancer: A Perspective on Small-Molecule Inhibitors and Their Clinical Development” (J Med Chem, 2021)

Columns and labels:
[1] = Cytotoxicity against HUVEC expressing FLT-1 incubated for 72 hrs by celltitre blue assay; format: toxicity, cell-based; conditions: human
K562 = assay: Cytotoxicity against human K562 cells expressing BCR-ABL incubated for 72 hrs by celltitre blue assay; format: functional
A-375 = assay: Cytotoxicity against human A-375 cells expressing BRAF V600E mutant incubated for 72 hrs by celltitre blue assay; format: functional
[2] = Cytotoxicity against human TT-1 cells expressing RET incubated for 72 hrs by celltitre blue assay; format: functional
[3] = biological target: T1, Tyrosine-protein kinase ABL1 (Homo sapiens, UniProt P00519); assay: Inhibition of ABL (unknown origin) by kinomescan assay
T1 sequence (P00519 whole entry): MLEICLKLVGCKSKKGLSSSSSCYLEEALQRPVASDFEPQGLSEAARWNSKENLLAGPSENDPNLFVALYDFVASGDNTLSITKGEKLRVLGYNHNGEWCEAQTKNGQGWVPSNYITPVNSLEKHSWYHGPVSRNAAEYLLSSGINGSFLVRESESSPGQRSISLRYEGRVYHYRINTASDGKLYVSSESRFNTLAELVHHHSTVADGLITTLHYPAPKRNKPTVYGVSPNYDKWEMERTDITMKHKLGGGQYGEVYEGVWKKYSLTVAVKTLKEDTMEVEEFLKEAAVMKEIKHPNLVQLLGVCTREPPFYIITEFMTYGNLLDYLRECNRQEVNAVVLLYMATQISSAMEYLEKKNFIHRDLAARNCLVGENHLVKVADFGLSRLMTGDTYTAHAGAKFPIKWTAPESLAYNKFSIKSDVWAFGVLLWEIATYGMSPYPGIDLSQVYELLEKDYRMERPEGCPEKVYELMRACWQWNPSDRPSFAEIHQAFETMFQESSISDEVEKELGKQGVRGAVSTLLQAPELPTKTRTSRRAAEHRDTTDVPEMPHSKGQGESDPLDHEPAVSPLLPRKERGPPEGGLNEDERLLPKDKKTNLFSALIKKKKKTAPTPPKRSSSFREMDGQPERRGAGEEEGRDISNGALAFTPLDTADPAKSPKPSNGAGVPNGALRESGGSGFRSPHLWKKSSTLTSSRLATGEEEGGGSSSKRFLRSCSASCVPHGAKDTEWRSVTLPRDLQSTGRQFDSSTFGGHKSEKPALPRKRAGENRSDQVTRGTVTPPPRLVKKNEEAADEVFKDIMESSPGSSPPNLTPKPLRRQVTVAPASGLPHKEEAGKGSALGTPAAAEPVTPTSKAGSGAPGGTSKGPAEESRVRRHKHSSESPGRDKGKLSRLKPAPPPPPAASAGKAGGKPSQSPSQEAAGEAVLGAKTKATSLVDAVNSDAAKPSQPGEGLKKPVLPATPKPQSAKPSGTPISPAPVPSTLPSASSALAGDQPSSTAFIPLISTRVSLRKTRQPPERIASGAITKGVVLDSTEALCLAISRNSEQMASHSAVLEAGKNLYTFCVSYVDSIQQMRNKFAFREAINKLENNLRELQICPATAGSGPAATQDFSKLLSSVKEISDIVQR

HeLa = assay: Cytotoxicity against human HeLa cells expressing CRAF incubated for 72 hrs by celltitre blue assay; format: functional
[4] = biological target: T1, Tyrosine-protein kinase ABL1; assay: Binding affinity to ABL (unknown origin) assessed as dissociation constant measured by ambit kinomescan assay
A-431 = assay: Cytotoxicity against human A-431 cells expressing C-KIT incubated for 72 hrs by celltitre blue assay; format: functional
[5] = Inhibition of C-KIT (unknown origin) by kinomescan assay; design: species or system Homo sapiens
LNCaP = assay: Cytotoxicity against human LNCaP cells expressing BRAF incubated for 72 hrs by celltitre blue assay; format: functional
Hs-578T = assay: Cytotoxicity against human Hs-578T cells expressing BRAF incubated for 72 hrs by celltitre blue assay; format: functional
COLO 205 = assay: Cytotoxicity against human COLO 205 cells expressing BRAF V600E mutant incubated for 72 hrs by celltitre blue assay; format: functional
[6] = Cytotoxicity against HUVEC expressing VEGFR2 incubated for 72 hrs by celltitre blue assay; format: toxicity, cell-based; conditions: human
[7] = biological target: RAF proto-oncogene serine/threonine-protein kinase (Homo sapiens, UniProt P04049); assay: Inhibition of CRAF (unknown origin) by kinomescan assay
Sequence of RAF proto-oncogene serine/threonine-protein kinase (P04049 whole entry): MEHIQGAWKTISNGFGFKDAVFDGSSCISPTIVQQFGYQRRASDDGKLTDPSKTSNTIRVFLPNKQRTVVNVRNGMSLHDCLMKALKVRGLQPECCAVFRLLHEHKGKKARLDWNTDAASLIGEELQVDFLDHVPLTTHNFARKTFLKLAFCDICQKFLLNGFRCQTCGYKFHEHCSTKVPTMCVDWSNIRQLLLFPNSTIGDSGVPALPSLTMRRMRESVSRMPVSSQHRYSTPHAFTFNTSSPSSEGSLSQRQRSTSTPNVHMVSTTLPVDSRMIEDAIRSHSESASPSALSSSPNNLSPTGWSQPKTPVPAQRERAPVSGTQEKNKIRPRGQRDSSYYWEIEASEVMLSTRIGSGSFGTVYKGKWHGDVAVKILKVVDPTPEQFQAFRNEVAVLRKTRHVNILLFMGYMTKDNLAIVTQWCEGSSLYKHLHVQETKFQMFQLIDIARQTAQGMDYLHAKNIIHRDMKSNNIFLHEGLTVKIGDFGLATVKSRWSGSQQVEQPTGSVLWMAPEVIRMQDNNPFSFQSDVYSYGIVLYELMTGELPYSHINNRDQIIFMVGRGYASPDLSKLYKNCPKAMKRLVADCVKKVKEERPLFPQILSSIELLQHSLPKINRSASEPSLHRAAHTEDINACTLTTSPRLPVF

[8] = Inhibition of RET V804M (unknown origin); design: species or system Homo sapiens
[9] = biological target: Proto-oncogene tyrosine-protein kinase receptor Ret (Homo sapiens) (UniProt P07949); conditions: NIH3T3
Sequence of Proto-oncogene tyrosine-protein kinase receptor Ret (Homo sapiens) (P07949 whole entry): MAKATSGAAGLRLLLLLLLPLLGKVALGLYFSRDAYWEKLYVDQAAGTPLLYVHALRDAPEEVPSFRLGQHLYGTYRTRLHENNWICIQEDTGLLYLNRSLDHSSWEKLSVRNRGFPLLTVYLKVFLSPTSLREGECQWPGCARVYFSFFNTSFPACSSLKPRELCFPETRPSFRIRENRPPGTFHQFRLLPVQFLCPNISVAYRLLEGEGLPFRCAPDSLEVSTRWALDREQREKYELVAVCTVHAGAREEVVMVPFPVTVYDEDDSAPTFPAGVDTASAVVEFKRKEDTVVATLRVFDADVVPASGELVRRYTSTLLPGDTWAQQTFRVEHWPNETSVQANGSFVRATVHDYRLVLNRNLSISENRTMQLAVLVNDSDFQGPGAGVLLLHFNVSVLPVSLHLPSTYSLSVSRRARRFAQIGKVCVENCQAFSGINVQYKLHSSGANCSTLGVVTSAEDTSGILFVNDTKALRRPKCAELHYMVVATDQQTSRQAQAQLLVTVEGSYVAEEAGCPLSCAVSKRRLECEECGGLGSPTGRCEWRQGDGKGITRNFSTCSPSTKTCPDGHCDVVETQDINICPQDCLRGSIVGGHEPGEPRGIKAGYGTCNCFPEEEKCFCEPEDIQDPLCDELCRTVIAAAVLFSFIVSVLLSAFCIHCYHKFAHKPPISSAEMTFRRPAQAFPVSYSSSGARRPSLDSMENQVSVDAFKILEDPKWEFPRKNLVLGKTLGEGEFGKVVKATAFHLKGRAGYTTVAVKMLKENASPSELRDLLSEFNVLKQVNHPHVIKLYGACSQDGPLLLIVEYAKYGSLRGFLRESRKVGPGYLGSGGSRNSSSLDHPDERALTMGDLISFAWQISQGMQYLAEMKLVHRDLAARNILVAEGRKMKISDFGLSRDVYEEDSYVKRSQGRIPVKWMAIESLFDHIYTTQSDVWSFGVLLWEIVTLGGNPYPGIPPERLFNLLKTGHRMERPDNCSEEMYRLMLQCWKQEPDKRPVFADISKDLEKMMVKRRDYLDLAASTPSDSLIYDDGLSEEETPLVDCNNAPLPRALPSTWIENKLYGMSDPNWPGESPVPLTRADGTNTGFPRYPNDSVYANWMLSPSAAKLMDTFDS

[10] = Inhibition of p38 (unknown origin); design: species or system Homo sapiens
[11] = Inhibition of RET G810R (unknown origin); design: species or system Homo sapiens
NB1 = assay: cells; conditions: Homo sapiens
[12] = Inhibition of human recombinant RET Y719F using Biotin-EGPWLEEEEEAYGWMDF as substrate by TR-FRET assay
[13] = Inhibition of recombinant RET V804M (unknown origin) incubated for 120 mins by Perkin Elmer electrophoretic mobility shift platform method; design: species or system Homo sapiens
[14] = biological target: Vascular endothelial growth factor receptor 2 (Homo sapiens, UniProt P35968); assay: Inhibition of recombinant VEGFR2 (unknown origin) incubated for 120 mins by Perkin Elmer electrophoretic mobility shift platform method
Sequence of Vascular endothelial growth factor receptor 2 (P35968 whole entry): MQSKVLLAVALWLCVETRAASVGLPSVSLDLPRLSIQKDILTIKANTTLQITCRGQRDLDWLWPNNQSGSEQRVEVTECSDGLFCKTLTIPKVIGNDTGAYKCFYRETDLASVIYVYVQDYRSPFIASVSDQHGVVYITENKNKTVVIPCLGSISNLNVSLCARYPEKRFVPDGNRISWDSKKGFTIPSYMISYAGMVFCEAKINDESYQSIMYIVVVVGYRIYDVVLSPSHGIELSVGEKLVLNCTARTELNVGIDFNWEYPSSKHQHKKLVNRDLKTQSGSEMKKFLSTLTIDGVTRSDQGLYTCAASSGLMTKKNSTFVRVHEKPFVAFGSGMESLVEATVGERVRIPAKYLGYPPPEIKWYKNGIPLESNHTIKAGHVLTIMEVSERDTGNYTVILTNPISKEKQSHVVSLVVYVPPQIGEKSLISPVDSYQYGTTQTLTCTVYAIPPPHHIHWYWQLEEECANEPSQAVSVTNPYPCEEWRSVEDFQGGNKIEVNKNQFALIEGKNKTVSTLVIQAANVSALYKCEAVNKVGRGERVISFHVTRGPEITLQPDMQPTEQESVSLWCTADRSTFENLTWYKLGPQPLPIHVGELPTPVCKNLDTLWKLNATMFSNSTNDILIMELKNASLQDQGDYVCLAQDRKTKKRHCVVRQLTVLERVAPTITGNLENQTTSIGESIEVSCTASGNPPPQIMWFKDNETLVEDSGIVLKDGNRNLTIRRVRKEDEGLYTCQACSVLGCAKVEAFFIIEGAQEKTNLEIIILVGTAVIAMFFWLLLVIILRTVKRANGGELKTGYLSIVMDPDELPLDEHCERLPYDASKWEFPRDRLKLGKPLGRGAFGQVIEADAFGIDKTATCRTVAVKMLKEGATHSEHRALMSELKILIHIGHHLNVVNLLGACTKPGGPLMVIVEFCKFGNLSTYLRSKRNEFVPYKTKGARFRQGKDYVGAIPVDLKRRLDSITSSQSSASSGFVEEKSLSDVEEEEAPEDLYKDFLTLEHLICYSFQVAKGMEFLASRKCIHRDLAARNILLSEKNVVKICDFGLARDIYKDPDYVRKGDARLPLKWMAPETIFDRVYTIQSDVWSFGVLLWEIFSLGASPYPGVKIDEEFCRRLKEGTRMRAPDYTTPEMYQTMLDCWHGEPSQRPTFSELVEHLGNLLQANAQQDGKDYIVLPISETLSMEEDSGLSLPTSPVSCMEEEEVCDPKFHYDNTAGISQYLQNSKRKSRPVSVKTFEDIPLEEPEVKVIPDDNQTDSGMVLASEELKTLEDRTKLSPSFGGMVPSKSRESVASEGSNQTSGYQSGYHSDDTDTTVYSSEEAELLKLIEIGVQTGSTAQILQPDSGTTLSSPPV

`COc1cc2ncnc(Oc3cccc(NC(=O)Nc4cc(C(C)(C)C(F)(F)F)on4)c3)c2cc1OC` [CEP-32496] showed a GI50 at 72 h [1] of no less than 1000 nM, a GI50 (K562) of 70 nM and a GI50 (A-375) of 84 nM. The GI50 [2] was 21 nM, the IC50 [3] was 6 nM and the GI50 (HeLa) was no less than 3000 nM. For the same compound, the Kd [4] was 2.8 nM, the GI50 (A-431) was 1000 nM and the IC50 [5] was 1 nM. For the same compound, the GI50 (LNCaP) was 6630 nM, the GI50 (Hs-578T) was 2740 nM and the GI50 (COLO 205) was 60 nM. For the same compound, the GI50 at 72 h [6] was no less than 700 nM and the IC50 [7] was 146 nM.

For `CNC(=O)c1cc(Oc2ccc(NC(=O)Nc3ccc(Cl)c(C(F)(F)F)c3)cc2)ccn1` [SORAFENIB], the IC50 [8] was 7.9 nM, the GI50 [9] was 47 nM and the IC50 [10] was 38 nM.

In the case of `C[C@H]1CNC(=O)c2cnn3cc4c(nc23)N(Cc2cc(F)cnc2O1)[C@@H]1CCC[C@@H]1O4` [ENBEZOTINIB], the IC50 [11] is reported as 17 nM.

`CCc1cc2c(cc1N1CCC(N3CCOCC3)CC1)C(C)(C)c1[nH]c3cc(C#N)ccc3c1C2=O` [ALECTINIB] gave an IC50 (NB1) of 4.5 nM and an IC50 [12] of 14 nM.

For `COc1ccc(CN2C3CC2CN(c2ccc(-c4cc(OCC(C)(C)O)cn5ncc(C#N)c45)cn2)C3)cn1` [SELPERCATINIB], the IC50 [13] was 0.8 nM and the IC50 [11] was greater than 500 nM.

With `COC1(C(=O)N[C@@H](C)c2ccc(-n3cc(F)cn3)nc2)CCC(c2nc(C)cc(Nc3cc(C)[nH]n3)n2)CC1` (some centres undefined) the IC50 [14] was 35 nM and the IC50 [11] was greater than 500 nM.
